# Results as given in patent US12595253B2, “Benzamides of pyrazolylamino-pyrimidinyl derivatives, and compositions and methods thereof” (LYNK PHARMACEUTICALS CO. LTD., priority 2019, dated 2026).
# Legend:
# CYP3A4 = target: T1, CYP3A4 (Homo sapiens, UniProt P08684); assay: CYPs inhibition in pooled human liver microsomes, probe substrate Midazolam; assay type: in vitro ADME
# T1 construct: 0.2 mg/mL human liver microsomes was pre-incubated in 180 μL reaction mixture; from tissue; host or cells: pooled human liver microsomes
# Description: (§1) The inhibitory potential of test articles in pooled human liver microsomes was evaluated by the method using a cocktail of CYP substrates. […] For the negative control well, the test articles was replaced with 20 μL reaction buffer. After 10 min of pre-incubation at 37° C., 20 μL 10 mM NADPH cofactor was added to the pre-reaction mixtures. After another 10 min incubation, the reaction was stopped by adding 400 μL of ice cold acetonitrile solution containing tolbutamide and labetalol served as internal standards. The incubation mixtures were centrifuged at 4000×g for 20 min, and then the supernatants were analyzed by LC-MS/MS after dilution. SigmaPlot was applied to plot % control activity versus the test compound concentrations, and for non-linear regression analysis of the data. IC50 values of test articles were determined using 3-parameter logistic equation.
# JAK2V617F = target: T2, JAK2V617F (Homo sapiens, UniProt O60674, V617F); assay: JAK2V617F microfluidic kinase assay (Caliper EZ Reader II, FAM labeled peptide substrate); assay type: biochemical; settings: JAK2V617F 2.5 nM, 1 mM ATP
# T2 construct: purchased Carna Biosciences
# Outline: (§2)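 Compounds, serially diluted 3-fold from 5 μM, were preincubated 10 min with enzyme at ambient temperature before reaction in HEPES/Brij35/MgCl2/DTT buffer (1% DMSO final), tuned to 10% peptide conversion. After EDTA stop, FAM-peptide phosphorylation was measured by Caliper EZ Reader II; IC50 fitted from percent-inhibition curves.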
# CYP2C9 = target: T3, CYP2C9 (Homo sapiens, UniProt P11712); assay: CYPs inhibition in pooled human liver microsomes, probe substrate Diclofenac; assay type: in vitro ADME
# T3 construct: 0.2 mg/mL human liver microsomes was pre-incubated in 180 μL reaction mixture; from tissue; host or cells: pooled human liver microsomes
# Description: as §1
# TYK2 = target: T4, TYK2 (Homo sapiens, UniProt P29597); assay: TYK2 microfluidic kinase assay (Caliper EZ Reader II, FAM labeled peptide substrate); assay type: biochemical
# T4 construct: purchased Carna Biosciences
# Outline: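 First, serially diluted compounds (top 5 μM, 3-fold steps, 1% DMSO final) sit with enzyme 10 min at ambient temperature. Then the kinase reaction runs in HEPES buffer with 10 mM MgCl2 for 120, 20, 30 or 10 min (JAK1, JAK2, JAK2V617F, TYK2). Finally 50 mM EDTA quenches it.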
# CYP2C19 = target: T5, CYP2C19 (Homo sapiens, UniProt P33261); assay: CYPs inhibition in pooled human liver microsomes, probe substrate S-mephenytoin; assay type: in vitro ADME
# T5 construct: 0.2 mg/mL human liver microsomes was pre-incubated in 180 μL reaction mixture; from tissue; host or cells: pooled human liver microsomes
# Description: as §1
# [1] = Liver microsomes study, Phase I stability (HLM); assay type: in vitro ADME, human; settings: pH 7.4; human liver microsomes 0.5 mg/mL, 1 μM test article; read-out: HLM Clint
# Outline: (§3)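 Rat or human liver microsomes were incubated with test article, and reactions started with an NADPH regenerating system. Samples at 0, 10, 30 and 90 minutes were quenched with cold acetonitrile and analyzed by LC/MS/MS. T½ and CLint came from the ln(% remaining) versus time slope, scaled by protein concentration.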
# CYP1A2 = target: T6, CYP1A2 (Homo sapiens, UniProt P05177); assay: CYPs inhibition in pooled human liver microsomes, probe substrate Phenacetin; assay type: in vitro ADME
# T6 construct: 0.2 mg/mL human liver microsomes was pre-incubated in 180 μL reaction mixture; from tissue; host or cells: pooled human liver microsomes
# T6 sequence (P05177 1-516): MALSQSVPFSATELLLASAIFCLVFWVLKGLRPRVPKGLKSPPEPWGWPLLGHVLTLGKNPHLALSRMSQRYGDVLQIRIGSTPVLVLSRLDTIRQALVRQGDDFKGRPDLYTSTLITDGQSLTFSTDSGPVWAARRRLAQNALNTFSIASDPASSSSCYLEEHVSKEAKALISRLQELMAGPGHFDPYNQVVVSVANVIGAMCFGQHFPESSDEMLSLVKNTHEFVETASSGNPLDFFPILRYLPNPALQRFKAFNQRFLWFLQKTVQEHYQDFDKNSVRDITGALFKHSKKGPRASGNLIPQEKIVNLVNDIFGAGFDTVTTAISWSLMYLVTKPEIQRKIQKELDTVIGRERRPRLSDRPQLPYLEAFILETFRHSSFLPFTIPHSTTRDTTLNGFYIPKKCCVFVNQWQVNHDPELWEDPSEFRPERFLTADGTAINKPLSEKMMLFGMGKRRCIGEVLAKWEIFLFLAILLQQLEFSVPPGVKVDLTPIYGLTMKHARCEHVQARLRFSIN
# Description: as §1
# [2] = Liver microsomes study, Phase I stability (RLM); assay type: in vitro ADME, rat; settings: pH 7.4; rat liver microsomes 0.5 mg/mL, 1 μM test article; read-out: RLM Clint
# Outline: as §3
# CYP2D6 = target: T7, CYP2D6 (Homo sapiens, UniProt P10635); assay: CYPs inhibition in pooled human liver microsomes, probe substrate Dextromethorphan; assay type: in vitro ADME
# T7 construct: 0.2 mg/mL human liver microsomes was pre-incubated in 180 μL reaction mixture; from tissue; host or cells: pooled human liver microsomes
# Description: as §1
# JAK2 = target: T8, JAK2 (Homo sapiens, UniProt O60674); assay: JAK2 microfluidic kinase assay (Caliper EZ Reader II, FAM labeled peptide substrate); assay type: biochemical
# T8 construct: purchased Carna Biosciences
# Outline: as §2
# JAK1 = target: T9, JAK1 (Homo sapiens, UniProt P23458); assay: JAK1 microfluidic kinase assay (Caliper EZ Reader II, FAM labeled peptide substrate); assay type: biochemical
# T9 construct: purchased Carna Biosciences
# Outline: as §2
# [3] = Rat pharmacokinetic study (intravenous and oral); assay type: in vivo; settings: Sprague-Dawley rats, oral, 10 mg/kg, solution
# [4] = Rat pharmacokinetic study (intravenous and oral); assay type: in vivo; settings: male, plasma, Sprague-Dawley rats, intravenous, 1 mg/kg, solution
# Description: Pharmacokinetic profile of test articles in rodent were evaluated in fasted male ICR mouse and Sprague-Dawley rats. […] Typically, mice were dosed with 2 mg/kg and 10 mg/kg by intravenous injection and oral gavage, respectively. Rats were dosed with 1 mg/kg and 5 mg/kg by intravenous injection and oral gavage, respectively. Beagle dogs were dosed with 1 mg/kg and 5 mg/kg by intravenous injection and oral gavage, respectively. After dosing, blood samples were collected at each time point. For IV injection group, time points were set at 5, 15, 30 min, and then 1, 2, 4, 8 and 24 hours after dosing. For oral gavage group, timepoints were set at 15, 30 m, and then 1, 2, 4, 8, and 24 hours. Blood was collected into appropriately labeled tubes containing K2EDTA as the anticoagulant. Plasma was obtained within 1 hours of blood collection by centrifugation at 8000×g and 4° C. for 6 minutes, and then stored at −20° C. until analyzed by LCMS/MS for quantification.
# FLT3D835Y = target: T10, FLT3D835Y (Homo sapiens, UniProt P36888, D835Y); assay: FLT3D835Y microfluidic kinase assay; assay type: biochemical
# T10 construct: purchased Carna Biosciences
# T10 sequence (P36888 27-993 D835Y): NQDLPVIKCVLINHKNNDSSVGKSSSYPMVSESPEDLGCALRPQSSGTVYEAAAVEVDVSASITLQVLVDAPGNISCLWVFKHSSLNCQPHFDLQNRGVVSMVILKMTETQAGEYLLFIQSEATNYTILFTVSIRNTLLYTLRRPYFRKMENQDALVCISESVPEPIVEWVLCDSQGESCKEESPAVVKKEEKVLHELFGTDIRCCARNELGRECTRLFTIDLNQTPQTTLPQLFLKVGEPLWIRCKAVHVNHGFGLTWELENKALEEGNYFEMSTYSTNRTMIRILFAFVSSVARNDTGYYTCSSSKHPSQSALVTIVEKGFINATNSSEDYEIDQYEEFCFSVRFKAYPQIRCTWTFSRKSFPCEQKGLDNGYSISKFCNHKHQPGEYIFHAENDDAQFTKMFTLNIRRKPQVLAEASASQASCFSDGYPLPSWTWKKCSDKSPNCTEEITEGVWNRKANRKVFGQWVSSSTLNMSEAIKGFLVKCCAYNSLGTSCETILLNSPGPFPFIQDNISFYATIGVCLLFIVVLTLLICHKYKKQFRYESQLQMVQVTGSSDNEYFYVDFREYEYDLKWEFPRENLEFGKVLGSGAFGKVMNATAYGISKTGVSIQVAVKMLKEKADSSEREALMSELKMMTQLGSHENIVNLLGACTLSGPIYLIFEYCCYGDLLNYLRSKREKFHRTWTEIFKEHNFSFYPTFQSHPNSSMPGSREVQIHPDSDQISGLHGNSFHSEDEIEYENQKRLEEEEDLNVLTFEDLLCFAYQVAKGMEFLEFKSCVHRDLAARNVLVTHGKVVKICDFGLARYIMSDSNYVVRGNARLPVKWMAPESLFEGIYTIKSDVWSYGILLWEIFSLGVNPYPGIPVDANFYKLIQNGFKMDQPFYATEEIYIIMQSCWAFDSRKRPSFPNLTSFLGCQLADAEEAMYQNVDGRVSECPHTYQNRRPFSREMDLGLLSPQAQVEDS
# Description: Compounds were tested against FLT3, FLT3ITD and FLT3D835Y.
# Assay Formats: FLT3 activity was determined in the reaction buffer 50 mM HEPES, 10 mM MgCl2 and 2 mM DTT by a microfluidic assay. The phosphorylation of a FAM labeled peptide substrate was monitored in the Caliper EZ Reader II (Perkin Elmer). The assay condition for each batch of enzyme (Carna Biosciences) was optimized to obtain 10% conversion rate of peptide substrate.
# The test compounds were dissolved in DMSO to a stock concentration of 10 mM. 3-fold serially diluted compounds with top concentration of 5 μM were pre-incubated with FLT3, FLT3ITD or FLT3D835Y for 10 min at ambient temperature. The final DMSO concentration of assay mixture was 1%. […] The reaction was stopped by adding 50 mM EITA. The reaction time for FLT3, FLT3ITD and FLT3D8335Y was 30 min, 40 min and 40 min, respectively.
# And the well without compound but with equivalent DMSO was defined as no inhibition. The percent inhibition was calculated by the following formula. % Inhibition=(Conversionmax−Conversionsample)/(Conversionmax−Conversionmin)*100 • Conversionmax means the conversion rate in the positive well without addition of compound • Conversionmin means the conversion rate in the well without addition of enzyme • Conversionsample means the conversion rate of test compounds
# The dose-response (percent inhibition) curve was plotted and IC50 values were determined by GraphPad software.
# [5] = IC50 TYK2 ([…]) (1 mM ATP), TYK2 […], 1 mM ATP
# [6] = IC50 JAK2 ([…]) (1 mM ATP), 1 mM ATP
# [7] = IC50 JAK1 (5 nM) (1 m MATP), JAK1 5 nM, 1 mM ATP
# [8] = IC50 JAK2 ([…]) (Km ATP), Km ATP
# T8 sequence (O60674 whole entry): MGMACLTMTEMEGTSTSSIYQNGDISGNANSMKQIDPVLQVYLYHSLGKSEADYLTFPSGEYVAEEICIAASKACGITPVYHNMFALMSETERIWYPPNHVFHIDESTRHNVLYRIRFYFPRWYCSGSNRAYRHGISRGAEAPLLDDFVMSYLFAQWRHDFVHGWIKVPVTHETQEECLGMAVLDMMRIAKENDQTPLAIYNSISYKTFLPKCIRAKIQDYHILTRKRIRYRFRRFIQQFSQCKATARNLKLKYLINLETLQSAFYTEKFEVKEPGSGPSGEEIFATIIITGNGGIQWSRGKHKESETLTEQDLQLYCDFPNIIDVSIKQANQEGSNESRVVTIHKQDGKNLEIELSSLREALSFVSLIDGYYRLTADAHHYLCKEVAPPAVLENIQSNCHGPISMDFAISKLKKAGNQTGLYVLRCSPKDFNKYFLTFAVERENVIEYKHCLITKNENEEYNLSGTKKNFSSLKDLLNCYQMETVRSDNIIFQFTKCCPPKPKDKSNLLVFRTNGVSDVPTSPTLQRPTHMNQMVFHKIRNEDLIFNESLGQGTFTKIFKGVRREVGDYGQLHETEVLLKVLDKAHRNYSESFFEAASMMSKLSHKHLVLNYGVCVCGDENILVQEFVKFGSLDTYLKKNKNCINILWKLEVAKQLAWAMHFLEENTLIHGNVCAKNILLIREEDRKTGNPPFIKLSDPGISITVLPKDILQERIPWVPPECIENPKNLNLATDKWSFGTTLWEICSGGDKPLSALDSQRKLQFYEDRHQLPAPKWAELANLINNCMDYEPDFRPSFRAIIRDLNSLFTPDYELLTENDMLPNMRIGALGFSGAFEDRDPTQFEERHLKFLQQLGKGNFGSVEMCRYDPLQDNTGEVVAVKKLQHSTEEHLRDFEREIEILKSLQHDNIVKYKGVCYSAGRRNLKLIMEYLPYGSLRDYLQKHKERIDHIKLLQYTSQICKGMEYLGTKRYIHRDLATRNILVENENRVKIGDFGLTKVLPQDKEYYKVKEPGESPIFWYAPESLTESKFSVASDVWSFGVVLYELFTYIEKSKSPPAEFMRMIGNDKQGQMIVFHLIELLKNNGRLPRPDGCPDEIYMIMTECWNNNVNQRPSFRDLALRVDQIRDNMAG
# T4 sequence (P29597 whole entry): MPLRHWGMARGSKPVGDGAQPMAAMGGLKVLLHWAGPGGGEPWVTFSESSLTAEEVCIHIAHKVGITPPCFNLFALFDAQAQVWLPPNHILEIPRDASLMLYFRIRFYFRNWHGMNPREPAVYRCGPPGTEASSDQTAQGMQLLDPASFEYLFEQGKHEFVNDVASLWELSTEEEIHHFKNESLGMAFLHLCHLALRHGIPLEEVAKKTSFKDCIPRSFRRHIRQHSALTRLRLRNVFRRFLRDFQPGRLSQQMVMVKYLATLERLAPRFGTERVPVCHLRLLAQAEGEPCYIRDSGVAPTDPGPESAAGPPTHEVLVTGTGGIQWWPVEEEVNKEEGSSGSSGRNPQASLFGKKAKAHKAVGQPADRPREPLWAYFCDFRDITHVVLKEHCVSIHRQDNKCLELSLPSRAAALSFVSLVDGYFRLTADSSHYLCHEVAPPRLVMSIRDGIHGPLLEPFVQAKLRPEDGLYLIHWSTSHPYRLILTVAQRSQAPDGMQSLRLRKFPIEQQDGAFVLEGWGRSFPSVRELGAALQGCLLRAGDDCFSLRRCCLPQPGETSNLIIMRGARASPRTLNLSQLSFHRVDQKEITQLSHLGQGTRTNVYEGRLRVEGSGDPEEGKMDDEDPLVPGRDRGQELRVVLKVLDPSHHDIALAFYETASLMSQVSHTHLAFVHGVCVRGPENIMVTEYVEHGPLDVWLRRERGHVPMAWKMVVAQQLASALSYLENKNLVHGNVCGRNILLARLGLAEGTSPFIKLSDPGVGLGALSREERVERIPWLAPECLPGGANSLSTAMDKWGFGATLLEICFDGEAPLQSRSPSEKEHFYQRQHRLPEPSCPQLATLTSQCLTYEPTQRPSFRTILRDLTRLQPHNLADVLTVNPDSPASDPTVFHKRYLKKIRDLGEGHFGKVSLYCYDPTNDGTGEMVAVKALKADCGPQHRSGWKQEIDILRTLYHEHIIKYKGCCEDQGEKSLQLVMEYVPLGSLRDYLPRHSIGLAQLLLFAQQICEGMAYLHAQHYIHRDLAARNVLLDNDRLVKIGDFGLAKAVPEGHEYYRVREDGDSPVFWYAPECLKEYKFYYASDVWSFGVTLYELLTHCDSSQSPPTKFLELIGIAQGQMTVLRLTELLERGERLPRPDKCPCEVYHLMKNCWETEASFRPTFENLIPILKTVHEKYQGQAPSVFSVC
# T7 sequence (P10635 whole entry): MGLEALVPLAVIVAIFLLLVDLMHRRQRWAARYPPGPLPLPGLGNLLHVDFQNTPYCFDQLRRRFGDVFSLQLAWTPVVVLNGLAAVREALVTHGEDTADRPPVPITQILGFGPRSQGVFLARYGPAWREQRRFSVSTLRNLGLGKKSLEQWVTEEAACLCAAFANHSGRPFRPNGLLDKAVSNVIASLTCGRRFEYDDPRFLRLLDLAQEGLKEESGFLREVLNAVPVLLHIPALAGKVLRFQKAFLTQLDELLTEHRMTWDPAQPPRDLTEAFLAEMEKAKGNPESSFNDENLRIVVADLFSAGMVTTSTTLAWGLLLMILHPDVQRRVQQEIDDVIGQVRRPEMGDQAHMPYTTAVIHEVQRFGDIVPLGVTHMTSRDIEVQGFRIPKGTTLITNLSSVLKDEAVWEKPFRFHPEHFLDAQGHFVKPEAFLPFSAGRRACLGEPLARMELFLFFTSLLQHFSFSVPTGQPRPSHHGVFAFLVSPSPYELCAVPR
# T2 sequence (O60674 whole entry V617F): as the sequence (O60674 whole entry) above, with V617F counted along it
# T9 sequence (P23458 whole entry): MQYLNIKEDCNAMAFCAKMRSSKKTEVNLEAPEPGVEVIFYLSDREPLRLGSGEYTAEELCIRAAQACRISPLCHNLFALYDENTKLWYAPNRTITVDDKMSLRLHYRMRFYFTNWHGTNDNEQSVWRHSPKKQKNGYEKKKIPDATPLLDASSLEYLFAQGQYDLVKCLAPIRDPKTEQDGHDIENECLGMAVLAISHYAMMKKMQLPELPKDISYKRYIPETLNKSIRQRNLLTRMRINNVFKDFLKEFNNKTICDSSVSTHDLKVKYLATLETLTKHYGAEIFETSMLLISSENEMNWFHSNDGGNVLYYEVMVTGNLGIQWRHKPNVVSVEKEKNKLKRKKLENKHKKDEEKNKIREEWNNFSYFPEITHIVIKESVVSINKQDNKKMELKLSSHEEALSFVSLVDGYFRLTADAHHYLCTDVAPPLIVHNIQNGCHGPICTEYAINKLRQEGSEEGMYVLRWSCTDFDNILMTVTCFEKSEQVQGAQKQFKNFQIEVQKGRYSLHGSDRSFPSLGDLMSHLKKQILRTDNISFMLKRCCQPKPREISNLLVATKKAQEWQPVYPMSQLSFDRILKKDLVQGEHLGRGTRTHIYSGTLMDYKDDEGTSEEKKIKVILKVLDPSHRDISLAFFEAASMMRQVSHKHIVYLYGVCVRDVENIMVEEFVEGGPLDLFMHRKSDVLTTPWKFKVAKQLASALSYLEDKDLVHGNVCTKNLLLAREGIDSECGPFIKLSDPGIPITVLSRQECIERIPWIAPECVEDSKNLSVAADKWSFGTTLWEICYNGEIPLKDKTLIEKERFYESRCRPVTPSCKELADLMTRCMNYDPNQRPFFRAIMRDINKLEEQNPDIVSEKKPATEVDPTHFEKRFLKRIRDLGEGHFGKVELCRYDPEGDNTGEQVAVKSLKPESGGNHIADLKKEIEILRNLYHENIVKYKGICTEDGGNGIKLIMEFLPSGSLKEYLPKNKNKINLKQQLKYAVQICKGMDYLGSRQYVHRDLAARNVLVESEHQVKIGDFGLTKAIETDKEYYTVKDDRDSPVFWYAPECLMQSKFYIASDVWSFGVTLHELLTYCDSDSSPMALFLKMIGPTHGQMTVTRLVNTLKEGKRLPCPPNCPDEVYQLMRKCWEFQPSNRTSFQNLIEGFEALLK
# T3 sequence (P11712 whole entry): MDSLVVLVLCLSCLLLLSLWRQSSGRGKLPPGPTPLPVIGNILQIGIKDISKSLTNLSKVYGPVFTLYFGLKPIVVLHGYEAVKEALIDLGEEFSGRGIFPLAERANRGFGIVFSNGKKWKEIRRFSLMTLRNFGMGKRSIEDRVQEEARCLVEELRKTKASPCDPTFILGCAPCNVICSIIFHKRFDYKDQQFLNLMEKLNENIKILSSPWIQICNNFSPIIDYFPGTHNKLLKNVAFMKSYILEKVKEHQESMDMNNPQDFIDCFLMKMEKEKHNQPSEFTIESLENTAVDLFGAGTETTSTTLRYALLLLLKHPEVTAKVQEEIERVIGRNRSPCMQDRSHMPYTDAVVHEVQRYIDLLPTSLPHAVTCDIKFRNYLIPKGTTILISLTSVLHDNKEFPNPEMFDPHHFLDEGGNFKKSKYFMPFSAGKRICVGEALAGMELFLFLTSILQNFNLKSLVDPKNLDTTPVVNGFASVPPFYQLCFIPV
# T5 sequence (P33261 whole entry): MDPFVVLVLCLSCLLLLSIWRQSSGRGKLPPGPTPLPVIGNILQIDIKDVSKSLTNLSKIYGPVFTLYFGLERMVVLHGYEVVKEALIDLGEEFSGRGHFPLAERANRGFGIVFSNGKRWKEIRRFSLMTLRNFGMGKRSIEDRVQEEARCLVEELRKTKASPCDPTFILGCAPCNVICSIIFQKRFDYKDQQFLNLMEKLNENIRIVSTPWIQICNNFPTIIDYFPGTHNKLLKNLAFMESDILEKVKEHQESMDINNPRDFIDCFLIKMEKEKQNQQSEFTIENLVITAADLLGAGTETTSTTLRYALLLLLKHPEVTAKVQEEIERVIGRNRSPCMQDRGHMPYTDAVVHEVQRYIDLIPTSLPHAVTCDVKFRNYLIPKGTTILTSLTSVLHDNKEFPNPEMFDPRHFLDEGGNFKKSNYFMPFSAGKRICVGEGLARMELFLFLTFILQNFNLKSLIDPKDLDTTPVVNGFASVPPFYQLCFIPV
SMILES,IC50 (CYP3A4),IC50 (JAK2V617F),IC50 (CYP2C9),IC50 (TYK2; [5]),IC50 (CYP2C19),microsomal CLint at 1 μM [1],IC50 (CYP1A2),microsomal CLint at 1 μM [2],IC50 (CYP2D6),IC50 (JAK2; [6]),IC50 (JAK1; [7]),AUC [4],Vd [4],clearance [4],half-life [4],IC50 (JAK2; [8]),also measured
"C[C@@H](C#N)NC(=O)c1ccc(-c2nc(Nc3cnn(C4CCOCC4)c3)ncc2Cl)cc1 [Example 39, (S)-4-(5-chloro-2-((1-(tetrahydro-2H-pyran-4-yl)-1H-pyrazol-4-yl)amino)pyrimidin-4-yl)-N-(1-cyanoethyl)benzamide]",–,5.37 nM,–,–,–,54.8 µL/min/mg,–,27.5 µL/min/mg,–,–,18.7 nM,951 ng·h/mL,0.7 L/kg,17.5 mL/min/kg,27.6 min,–,"F [3]: 11.99%; AUC ([3]; male, rat, plasma): 1090 ng·h/mL; Cmax ([3]; male, rat, plasma): 346 ng/mL; half-life ([3]; male, rat, plasma): 106 min"
"Cc1cnc(Nc2cnn(C)c2)nc1-c1ccc(C(=O)NCC(C)(C)C#N)cc1 [Example 13, N-(2-Cyano-2-methylpropyl)-4-(5-methyl-2-((1-methyl-1H-pyrazol-4-yl)amino)pyrimidin-4-yl)benzamide]",–,–,–,–,–,1.5 µL/min/mg,–,120 µL/min/mg,–,78.7 nM,34.3 nM,880 ng·h/mL,0.6 L/kg,18.9 mL/min/kg,21.6 min,2.7 nM,IC50 (FLT3D835Y): 57.4 nM
"Cc1cnc(Nc2cnn(C3CCN(CC#N)CC3)c2)nc1-c1ccc(C(=O)NCC#N)cc1 [Example 1, N-(Cyanomethyl)-4-(2-((1-(1-(cyanomethyl)piperidin-4-yl)-1H-pyrazol-4-yl)amino)-5-methylpyrimidin-4-yl)benzamide]",> 50000 nM,37.8 nM,> 50000 nM,–,> 50000 nM,14.9 µL/min/mg,> 50000 nM,15 µL/min/mg,> 50000 nM,1.34 nM,–,–,–,–,–,0.42 nM,"IC50 (TYK2; IC50 TYK2 (10 nM) (Km ATP), TYK2 10 nM, Km ATP): 0.84 nM; IC50 (JAK1; IC50 JAK1 (10 nM) (Km ATP), JAK1 10 nM, Km ATP): 1.79 nM"

# Further compounds by falling IC50 (JAK2V617F), results first:
IC50 (CYP3A4),IC50 (JAK2V617F),IC50 (CYP2C9),IC50 (TYK2; [5]),IC50 (CYP2C19),microsomal CLint at 1 μM [1],IC50 (CYP1A2),microsomal CLint at 1 μM [2],IC50 (CYP2D6),IC50 (JAK2; [6]),IC50 (JAK1; [7]),AUC [4],Vd [4],clearance [4],half-life [4],IC50 (JAK2; [8]),SMILES,also measured
> 50000 nM,31.7 nM,> 50000 nM,10.6 nM,> 50000 nM,4.64 µL/min/mg,> 50000 nM,34.5 µL/min/mg,> 50000 nM,1.02 nM,3.83 nM,–,–,–,–,–,"Cc1cnc(Nc2cnn(C3CCN(C)CC3)c2)nc1-c1ccc(C(=O)N[C@@H](C)C#N)cc1 [Example 48, (S)—N-(1-cyanoethyl)-4-(5-methyl-2-((1-(1-methylpiperidin-4-yl)-1H-pyrazol-4-yl)amino)pyrimidin-4-yl)benzamide]",–
32100 nM,2.42 nM,45300 nM,6.68 nM,24000 nM,22.8 µL/min/mg,> 50000 nM,221 µL/min/mg,41900 nM,0.61 nM,0.82 nM,–,–,–,–,–,"CC[C@@H](C#N)NC(=O)c1ccc(-c2nc(Nc3cnn(C4CCN(C)CC4)c3)ncc2Cl)cc1 [Example 88, (S)-4-(5-chloro-2-((1-(1-methylpiperidin-4-yl)-1H-pyrazol-4-yl)amino)pyrimidin-4-yl)-N-(1-cyanopropyl)benzamide]",–
